Assay results reported in patent publication US5837548A, “Treatment of inflammation by inhibition of lipid body formation” (Beth Israel Hospital, priority 1995, dated 1998).

Experiments:
Format in all cases: cell-based
[1] = tested on: human neutrophils (PGE2 production); experiment: PGE2 production by human neutrophils (priming, A23187 stimulation, ELISA)
Protocol: FIG. 1B is a graph showing the effect of arachidonic acid (AA) and oleic acid (OA) on lipid body induction (black) and priming for enhanced prostaglandin E2 (PGE2) production (white) by human neutrophils. Neutrophils (10^6 /mL) were stimulated for one hour with arachidonic acid (3.7, 7.5, 15 μM) or oleic acid (2.5, 5, 10 μM). Lipid bodies were enumerated using light microscopy following osmium staining. The concentration of PGE2 in the supernatant was measured by ELISA after incubation with A23187 (0.5 μM) for 15 minutes at 37° C. Data are expressed as mean from 2-3 independent assays performed in duplicate.
After the incubation time, a sample was taken for lipid body enumeration and the cells were washed in Ca^++ /Mg^++ free HBSS. Leukocytes were resuspended in 1 mL of HBSS containing Ca^++ /Mg^++ and then stimulated with A23187 (0.5 μM) for 15 min. The reaction was stopped on ice, and the samples were centrifuged at 1500 rpm for 10 min at 4° C. The concentrations of PGE2, LTB4, and LTC4 in the supernatants were assayed by ELISA according to the manufacturer's instructions (Cayman, Ann Arbor, Mich.).

human neutrophils = experiment: cis-unsaturated fatty acid-induced lipid body formation in human neutrophils (osmium staining, light microscopy enumeration); details: human neutrophils
Protocol: Neutrophils were purified from fresh human blood obtained by venipuncture from healthy adult volunteers and collected into acidified citrate. After addition of 6% dextran 70 (McGaw, Irvine, Calif.), RBCs were allowed to sediment for 1 hour at room temperature. The leukocyte-rich supernatant was overlaid onto an equal volume of Ficoll-Paque gradient (Piscataway, N.J.), and centrifuged at 400×g for 20 min. […] Residual RBCs were lysed with hypotonic saline.
Human leukocytes (10^6 cells/mL) were incubated with varying concentrations of arachidonic acid (AA), oleic acid (OA) or vehicle at 37° C. in a 5% CO2 /95% O2 atmosphere, and after 1 hour leukocytes (10^5 cells per slide) were cytocentrifuged (550 rpm, 5 min) onto glass slides. During inhibitory studies, neutrophils were pretreated for 1 hour with varying concentrations of enzyme inhibitors, protein synthesis inhibitors, or vehicle as indicated. When PKC inhibitors were used, the pre-incubation time was reduced to 30 minutes to avoid toxic effects to the cells. […] Stock solutions for A23187, D609, U-73122, and indomethacin were prepared in DMSO and stored at -20° C. Aliquots were diluted in Ca^++ /Mg^++ fee HBSS to the indicated concentration immediately prior to use. […] The morphology of fixed cells was observed, and lipid bodies were enumerated with phase contrast microscopy and a 100× objective lens in 50 consecutively scanned leukocytes.
(§1) Results were expressed as mean±SEM and were analyzed statistically by means of the analysis of variance followed by the Newman-Keuls-Student test with the level of significance set at p<0.05. Correlation coefficients were determined by linear regression, and correlation analysis was performed by Fisher's r to z transformation with the level of significance set at p<0.05.
^1 Neutrophils (10^6 /ml) were pretreated with protein kinase C
(actinomycin D, cycloheximide) for 30 min or with phospholipase C
inhibitors (D609, U73122) for 1 h. The cells were then stimulated with
vehicle, arachidonic acid (15 μM), or oleic acid (10 μM), for 1 h.
Results are mean ± SEM from fifty consecutively counted neutrophils.
Statistically significant differences between the agonist alone and the
inhibitor are represented by an asterisk(*). Percent inhibition has been
calculated after subtracting out the basal number of lipid bodies/PMN
present prior to stimulation.
^1 Neutrophils (10^6 /ml) were pretreated with the NSAID or
vehicle for 1 h then stimulated with vehicle, arachidonic acid, or oleic
± SEM from fifty consecutively counted neutrophils. Statistically
significant differences between the agonist alone and the NSAID are
represented by an asterisk (*). Percent inhibition has been calculated
after subtracting out the basal number of lipid bodies/PMN present prior

human eosinophils = experiment: cis-unsaturated fatty acid-induced lipid body formation in human eosinophils
Protocol: Vehicle alone is represented by the dark columns. AA and OA are represented by the striped and gray columns, respectively. Agonist plus the pretreatment with aspirin is represented by the cross-hatched columns. Cells (10^6 /mL) were pretreated with aspirin (10 μg/mL) or vehicle for one hour and then stimulated arachidonic acid (15 μM), oleic acid (10 μM) or vehicle for one hour. Lipid bodies were enumerated by light microscopy following osmium staining. Each point represents the mean±SEM from fifty consecutively counted cells. The statistically significant difference between the vehicle alone and the agonist is represented by a cross. Statistically significant differences due to pretreatment with aspirin are indicated by an asterisk.
Neutrophils were purified from fresh human blood obtained by venipuncture from healthy adult volunteers and collected into acidified citrate. After addition of 6% dextran 70 (McGaw, Irvine, Calif.), RBCs were allowed to sediment for 1 hour at room temperature. The leukocyte-rich supernatant was overlaid onto an equal volume of Ficoll-Paque gradient (Piscataway, N.J.), and centrifuged at 400×g for 20 min. PMNs (>95% pure, rest being eosinophils) were recovered from the pellet and washed in Ca^++ /Mg^++ free HBSS. Residual RBCs were lysed with hypotonic saline. Eosinophils (80% pure, the rest being neutrophils) were obtained from a donor with idiopathic hypereosinophilic syndrome using the same procedure as described above.
Human leukocytes (10^6 cells/mL) were incubated with varying concentrations of arachidonic acid (AA), oleic acid (OA) or vehicle at 37° C. in a 5% CO2 /95% O2 atmosphere, and after 1 hour leukocytes (10^5 cells per slide) were cytocentrifuged (550 rpm, 5 min) onto glass slides. During inhibitory studies, neutrophils were pretreated for 1 hour with varying concentrations of enzyme inhibitors, protein synthesis inhibitors, or vehicle as indicated. When PKC inhibitors were used, the pre-incubation time was reduced to 30 minutes to avoid toxic effects to the cells. The cell viability, determined by trypan blue dye exclusion at the end of each experiment, was always greater than 90%. Stock solutions for A23187, D609, U-73122, and indomethacin were prepared in DMSO and stored at -20° C. Aliquots were diluted in Ca^++ /Mg^++ fee HBSS to the indicated concentration immediately prior to use. […]
as §1

[2] = Homo sapiens, Neutrophil, 1 h, read-out: fold increase in production of PGE2
[3] = staurosporine 0.1-1.0 μM, aspirin 10 μg/mL, others as in Tables 1 and 2

Structure (SMILES) | fold induction at 15 µM [1, 2] | increase in production of PGE2 ([1]; neutrophils) | increase in number of lipid bodies (human neutrophils) | increase in number of lipid bodies (human eosinophils) | inhibition of PGE2 production ([1]; neutrophils, 10 μg/mL pretreatment) | inhibition of arachidonic acid-induced lipid body formation (human neutrophils; [3]) | inhibition of oleic acid-induced lipid body formation (human neutrophils; [3]) | inhibition of arachidonic acid-induced lipid body formation (human eosinophils; 10 μg/mL) | inhibition of oleic acid-induced lipid body formation (human eosinophils; 10 μg/mL) | fold induction at 10 µM [1, 2] | correlation (r) between number of lipid bodies and priming for enhanced PGE2 release ([1]; oleic acid, leukocytes, p<0.01)
CCCCC/C=C\C/C=C\C/C=C\C/C=C\CCCC(=O)O [arachidonic acid] | 3.5 | dose-dependent increase in production | dose-dependent increase in the number of lipid bodies | dose-dependent increase in the number of lipid bodies | – | – | – | – | – | – | –
CC(=O)Oc1ccccc1C(=O)O [aspirin] | – | – | – | – | inhibited PGE2 production | significantly inhibited | significantly inhibited | significantly inhibited | significantly inhibited | – | –
CCCCCCCC/C=C\CCCCCCCC(=O)O [oleic acid] | – | dose-dependent increase in production | dose-dependent increase in the number of lipid bodies | dose-dependent increase in the number of lipid bodies | – | – | – | – | – | 2 | 0.99
